{"source": "patent US10980787B2", "about": "“Drug for treating or preventing disorder caused by TGF-B signals, and application thereof” (THE DOSHISHA, priority 2015, dated 2021)", "key": {"[1]": {"system": "smad2 and smad3", "experiment": "Western blot of phospho-smad2 and smad3 after TGF-β2 stimulation", "type": "cell-based, human", "details": "iFECD, TGF-β2 10 ng/ml 24 hours; SB431542 10 μM, SB203580 10 μM, PH-797804 1 μM, VX-702 3 μM", "source_text": "The same procedure as Example 4 was used. However, rabbit anti-Phospho-Smad2 antibody: 1000-fold dilution, rabbit anti-Phospho-Smad3 antibody: 1000-fold dilution, and mouse anti-GAPDH antibody: 3000-fold dilution were used as the primary antibodies."}, "[2]": {"system": "immobilized human corneal endothelial cells (iFECD)", "experiment": "Cell damage by TGF-β2 stimulation, phase differential microscope", "type": "cell-based", "details": "24 h pretreatment, TGF-β2 10 ng/ml 27 hours, SB203580 10 μM, PH-797804 1 μM, VX-702 3 μM, SB431542 10 μM", "protocol": "(§1) The medium was removed from a culture dish in which immobilized human corneal endothelial cells were being cultured, and the cells were supplemented with 1×PBS (−) that was preheated to 37° C., and were washed. This was repeated twice. The cells were supplemented again with 1×PBS (−) and incubated for 5 minutes at 37° C. (5% CO2). After removing the PBS (−), the cells were supplemented with 0.05% Trypsin-EDTA (Nacalai Tesque, 35554-64) and incubated for 5 minutes at 37° C. (5% CO2). The cells were then suspended in a medium, and collected by centrifugation at 1500 rpm for 3 minutes. DMEM (Nacalai Tesque, 08456-94)+10% FBS (Biowest, S1820-500)+1% P/S (penicillin-streptomycin mixture) (Nacalai Tesque, 26252-94) was used as the medium.\n(§2) Immobilized human corneal endothelial cells (lot: iFECD3-5) were seeded on a 12-well plate at a ratio of 8×10^4 cells per well and cultured for 48 hours at 37° C. (5% CO2). DMEM+10% FBS+1% P/S was used as the medium.\nAfter 48 hours, the medium was removed. Each inhibitor was added to culture the cells for 24 hours. DMSO (Dimethyl Sulfoxide Sterile-filtered) (Nacalai Tesque, 13408-64) was added to the control group and the TGF-52 group. DMEM+2% FBS+1% P/S was used as the medium.\nAfter 24 hours, the medium was removed. A medium containing 10 ng/ml of Recombinant Human TGF-β2 (R&D systems, RND302-B2-002) and each inhibitor was added to culture the cells for 27 hours. […]"}, "[3]": {"system": "Human corneal endothelial cells", "experiment": "Cryopreservation of corneal endothelial cells, trypan blue dye exclusion test", "type": "cell-based", "details": "SB203580 10 μM in KM BANKER, 3 days at −80° C.", "protocol": "Human corneal endothelial cells cultured in an MSC-CM (MSC cultured medium) were used in the test. The medium was removed from a culture dish in which human corneal endothelial cells were being cultured, and the cells were supplemented with PBS (−) that was preheated to 37° C., and were washed. This was repeated twice. After removing the PBS (−), the cells were supplemented with TrypLE Select (×10) (GIBCO, A12177-01) and incubated for 10 minutes at 37° C. (5% CO2). SB203580 was added to KM BANKER, so that the final concentration was 10 μM. The control group was cryopreserved by supplementing a reagent solvent, dimethyl sulfoxide (DMSO) (Dimethyl Sulfoxide Sterile-filtered; Nacalai Tesque, 13408-64). After 3 days of storage at −80° C., the tube was thawed by being immersed in a 37° C. water bath. After thawing, the sample was washed in a medium. Live and dead cell counts were measured by trypan blue dye exclusion test."}, "[4]": {"details": "cited from earlier work"}, "[5]": {"system": "immobilized human corneal endothelial cells (iFECD)", "experiment": "Mitochondrial membrane potential decreased cells, JC-1 flow cytometry", "type": "cell-based", "details": "TGF-β2 10 ng/ml 30 hours, SB203580 10 μM, PH-797804 1 μM, VX-702 3 μM, compared to the TGF-β2 group or SB431542 10 μM group", "protocol": "as §1, with “C. (5% C02). After removing” for “C. (5% CO2). After removing”, “S1820-500)+1% P/S (Nacalai Tesque,” for “S1820-500)+1% P/S (penicillin-streptomycin mixture) (Nacalai Tesque,”\nas §2\n(§3) After 48 hours, the medium was removed. Each inhibitor was added to culture the cells for 24 hours (pretreatment). DMSO (Dimethyl Sulfoxide Sterile-filtered) (Nacalai Tesque, 13408-64) was added to the control group and the TGF-β2 group. DMEM+2% FBS+1% P/S was used as the medium. […]\nThe samples prepared above were analyzed using BD Accuri C6 Flow Cytometer (BD)."}, "[6]": {"system": "Human corneal endothelial cells", "experiment": "Cell count 24 hours after thawing cryopreserved cells, CellTiter-Glo", "type": "cell-based", "details": "SB203580 10 μM, 24 hours after seeding thawed cells", "protocol": "After thawing the cryopreserved cells by adding only DMSO, 10000 cells were seeded in a 96-well plate that was coated with laminin E8. SB203580 (Cayman, catalog number: 13067) was added so that the final concentration was 10 μM upon seeding. DMSO was added to the group to which SB203580 was not added. After 24 hours from seeding, CellTiter-Glo Luminescent Cell Viability Assay (Promega catalog number: G7570) was performed to measure luminescence."}, "[7]": {"system": "immobilized human corneal endothelial cells (iFECD)", "experiment": "Mitochondrial membrane potential, JC-1 stain, confocal microscope", "type": "cell-based", "details": "CCCP 50 μmol/L, 9 hours, uncoupling agent", "protocol": "as §1, with “P/S” for “P/S (penicillin-streptomycin mixture)”\nImmobilized human corneal endothelial cells (lot: iFECD3-5) were seeded on a 48-well plate at a ratio of 4×10^4 cells per well and cultured for 48 hours at 37° C. (5% CO2). DMEM+10% FBS+1% P/S was used as the medium.\nas §3, with “The CCCP group” for “DMEM+2% FBS+1% P/S”, “supplemented with CCCP (abcam, ab141229), so that” for “used as”, “final concentration was 50 μmol/L, and cultured for 9 hours.” for “medium.”\nMitochondrial membrane potential was analyzed by the following procedure with a JC-1 stain. […]"}}, "data": [{"smiles": "NC(=O)c1ccc(-c2nc(-c3ccc4c(c3)OCO4)c(-c3ccccn3)[nH]2)cc1", "note": "[SB431542]", "values": [{"measurement": "smad2 and smad3 (downstream of TGF-β signaling pathway) in western blot", "setting": "[1]", "result": "not found"}, {"measurement": "damage to corneal endothelial cells due to TGF-β2 stimulation", "setting": "[2]", "result": "suppressed"}]}, {"smiles": "C[S+]([O-])c1ccc(-c2nc(-c3ccncc3)c(-c3ccc(F)cc3)[nH]2)cc1", "note": "(stereo not drawn) [SB203580, 4-(4-fluorophenyl)-2-(4-methylsulfinylphenyl)-5-(4-pyridyl)-1H-imidazole]", "values": [{"measurement": "cell viability immediately after thawing compared to DMSO", "setting": "[3]", "result": "slightly higher"}, {"measurement": "solubility into methanol", "setting": "[4]; methanol", "result": "soluble"}, {"measurement": "solubility into water", "setting": "[4]; water", "result": "difficult to dissolve"}, {"measurement": "percentage of mitochondrial membrane potential decreased cells", "setting": "[5]", "result": "comparable to or lower than the SB431542 added group"}, {"measurement": "cell count compared to the DMSO-added group", "setting": "[6]", "result": "about 1.3 fold"}]}, {"smiles": "CNC(=O)c1ccc(C)c(-n2c(C)cc(OCc3ccc(F)cc3F)c(Br)c2=O)c1", "note": "[PH-797804, 3-[3-bromo-4-[(2,4-difluorophenyl)methoxy]-6-methyl-2-oxopyridin-1-yl]-N,4-dimethylbenzamide]", "values": [{"measurement": "percentage of mitochondrial membrane potential decreased cells", "setting": "[5]", "result": "comparable to or lower than the SB431542 added group"}]}, {"smiles": "N#CC(C#N)=NNc1cccc(Cl)c1", "note": "[CCCP]", "values": [{"measurement": "mitochondrial membrane potential (JC-1 red fluorescence)", "setting": "[7]", "result": "not observed"}]}]}
